What was measured:
human mGlu2 = biological target: T1, human mGlu2 (Homo sapiens, UniProt Q14416); assay: mGlu selectivity, thallium flux GIRK assay; format: cell-based
T1 construct: expressed in transfected cells
Experimental: (§1) the presence of 5% CO2, the dye solutions were removed and replaced with assay buffer using a microplate washer, leaving 20 μL of assay buffer in the cell plate. The compound, agonist, and cell plates were placed inside the Functional Drug Screening System (FDSS 7000 or uCell, Hamamatsu, Japan) to measure the calcium flux. Assays were run at 37 °C. A triple add protocol was used to measure Ca kinetics. Briefly, after establishment of a fluorescence baseline for 2 seconds (excitation, 480 nm; emission, 530 nm), 20 µL of test compound was added to the cells and the response was measured for 140 seconds. This was followed by the addition of 10 µL (5X) of an EC20 concentration of Glu agonist, and the response of the cells was measured for 125 seconds. A third addition occurred by adding 12 uL (5X) of an EC80 concentration of Glu agonist and the response of the cells was measured for 90 seconds. […] Calcium fluorescence was recorded as fold over basal fluorescence and raw data were normalized to the maximal response to Glu agonist (ECMax). Compound-evoked decreases in calcium response in the presence of Glu EC80 agonist were determined as inhibition activity, and potency (IC50) and maximum inhibition responses (% GluMin) of compounds were determined using a four-parameter logistical equation using GraphPad Prism (La Jolla, CA) or the Dotmatics software platform (Woburn, MA) : […]
(§2) The mGlu subtype selectivity of compounds was determined using calcium mobilization or thallium flux GIRK (G protein-regulated inwardly rectifying K channel) assays using the stable cell lines expressing the respective mGlu receptors. […]
(§3) at RT using DL-AP4 for the agonist. mGlu8 cells were incubated with dye solution for 50 min at 37 °C in the presence of […] and FDSS assays were run at RT. To measure activity at mGlu2 and mGlu3, HEK293-GIRK cells stably expressing human mGlu2 and mGlu3 were assessed using thallium flux assay through GIRK channels as previously described in detail.3 […]

human mGlu3 = biological target: T2, human mGlu3 (Homo sapiens, UniProt Q14832); assay: mGlu selectivity, thallium flux GIRK assay; format: cell-based
T2 construct: expressed in transfected cells
T2 sequence (Q14832 23-879): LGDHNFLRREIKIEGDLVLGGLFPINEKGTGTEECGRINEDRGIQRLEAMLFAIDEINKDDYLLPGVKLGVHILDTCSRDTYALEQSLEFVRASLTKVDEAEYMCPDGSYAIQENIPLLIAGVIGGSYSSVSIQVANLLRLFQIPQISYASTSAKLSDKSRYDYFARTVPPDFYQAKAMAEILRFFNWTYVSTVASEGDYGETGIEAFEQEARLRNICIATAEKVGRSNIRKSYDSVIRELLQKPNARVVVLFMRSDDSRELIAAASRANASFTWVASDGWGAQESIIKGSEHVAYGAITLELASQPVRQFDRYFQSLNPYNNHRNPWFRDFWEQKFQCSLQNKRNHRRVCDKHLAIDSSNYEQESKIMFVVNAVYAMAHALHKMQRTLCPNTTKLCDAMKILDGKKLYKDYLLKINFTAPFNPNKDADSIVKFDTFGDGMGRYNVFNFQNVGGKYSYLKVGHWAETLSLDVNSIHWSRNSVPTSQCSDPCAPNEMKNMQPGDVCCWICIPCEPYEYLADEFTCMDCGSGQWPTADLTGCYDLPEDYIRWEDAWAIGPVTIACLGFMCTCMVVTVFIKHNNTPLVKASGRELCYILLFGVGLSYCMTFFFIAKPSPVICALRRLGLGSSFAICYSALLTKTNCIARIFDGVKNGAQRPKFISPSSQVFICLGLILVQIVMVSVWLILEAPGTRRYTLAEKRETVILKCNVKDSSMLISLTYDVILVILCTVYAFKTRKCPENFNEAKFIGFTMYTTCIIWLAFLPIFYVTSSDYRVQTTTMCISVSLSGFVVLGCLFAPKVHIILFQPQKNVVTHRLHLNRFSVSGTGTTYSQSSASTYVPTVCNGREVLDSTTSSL
Experimental: as §1, §2, §3

CYP 1A2 = biological target: T3, CYP 1A2 (Homo sapiens, UniProt P05177); assay: P450 inhibition in pooled human liver microsomes; format: in vitro ADME; conditions: pooled HLM, NADPH, CYP-specific probe substrates; listed as VU6043653
T3 construct: from tissue; host or cells: pooled human liver microsomes (per the earlier reading)
T3 sequence (P05177 whole entry): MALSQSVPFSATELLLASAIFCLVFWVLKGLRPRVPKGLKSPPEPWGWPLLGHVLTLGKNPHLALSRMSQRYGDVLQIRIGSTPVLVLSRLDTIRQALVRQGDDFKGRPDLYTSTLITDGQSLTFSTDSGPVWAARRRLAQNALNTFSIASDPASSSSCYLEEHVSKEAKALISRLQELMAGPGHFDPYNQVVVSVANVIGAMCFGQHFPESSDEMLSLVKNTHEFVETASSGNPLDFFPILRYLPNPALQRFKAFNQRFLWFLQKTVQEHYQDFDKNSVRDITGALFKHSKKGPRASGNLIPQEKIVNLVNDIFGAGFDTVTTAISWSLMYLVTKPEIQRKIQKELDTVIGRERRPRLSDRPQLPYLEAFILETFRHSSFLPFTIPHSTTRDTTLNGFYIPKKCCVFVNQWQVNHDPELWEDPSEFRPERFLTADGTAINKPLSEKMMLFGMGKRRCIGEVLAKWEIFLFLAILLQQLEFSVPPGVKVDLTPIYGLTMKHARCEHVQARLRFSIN

Imidazoline I2, Central = assay: Lead Profiling Screen, Eurofins Panlabs; format: binding; conditions: rat
Excerpt: Nonetheless, as a non-aryl/heterobiaryl acetylene mGlu5 NAM with an encouraging in vivo rodent PK profile, we wished to further assess VU6043653 as a novel chemotype. Therefore, we compared metabolites in multiple species to better understand species differences in clearance and metabolism. […] Consistent with the high plasma clearance observed in dogs, high turnover was observed more so in dog hepatocytes than any other species tested (see the Supporting Information for additional details and results). To further evaluate our novel chemotype, the off-target and safety/toxicity profiles for this compound were further investigated.
Table S2. Lead Profiling Screen – Eurofins Panlabs for VU6043653.
Assay Name Species % inh at 10 μM […]
Imidazoline I2, Central rat -1

Interleukin IL-1 R1 = Interleukin IL-1 R1 (Homo sapiens, UniProt P14778); assay: Lead Profiling Screen, Eurofins Panlabs; format: binding; conditions: Interleukin IL-1 R1, hum, read-out: % inh at 10 μM
Interleukin IL-1 R1, sequence (P14778 18-569): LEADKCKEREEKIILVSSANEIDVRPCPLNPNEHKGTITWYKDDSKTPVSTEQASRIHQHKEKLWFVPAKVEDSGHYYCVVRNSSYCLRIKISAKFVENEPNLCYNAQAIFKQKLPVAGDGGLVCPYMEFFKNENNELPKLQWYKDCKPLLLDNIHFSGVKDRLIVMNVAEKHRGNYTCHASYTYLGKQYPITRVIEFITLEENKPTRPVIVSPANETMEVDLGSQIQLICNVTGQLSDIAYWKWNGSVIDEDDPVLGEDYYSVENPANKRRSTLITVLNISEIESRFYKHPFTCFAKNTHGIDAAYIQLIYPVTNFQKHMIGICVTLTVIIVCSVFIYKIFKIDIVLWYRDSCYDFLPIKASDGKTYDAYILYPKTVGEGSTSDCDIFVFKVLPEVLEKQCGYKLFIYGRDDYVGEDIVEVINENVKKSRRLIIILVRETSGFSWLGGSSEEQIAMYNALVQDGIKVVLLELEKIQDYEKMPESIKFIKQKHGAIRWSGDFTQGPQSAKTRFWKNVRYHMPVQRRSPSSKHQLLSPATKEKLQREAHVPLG

Opiate δ1 (OP1, DOP) = Opiate δ1 (OP1, DOP) (Homo sapiens, UniProt P41143); assay: Lead Profiling Screen, Eurofins Panlabs; format: binding; conditions: hum, read-out: % inh at 10 μM
Opiate δ1 (OP1, DOP), sequence (P41143 whole entry): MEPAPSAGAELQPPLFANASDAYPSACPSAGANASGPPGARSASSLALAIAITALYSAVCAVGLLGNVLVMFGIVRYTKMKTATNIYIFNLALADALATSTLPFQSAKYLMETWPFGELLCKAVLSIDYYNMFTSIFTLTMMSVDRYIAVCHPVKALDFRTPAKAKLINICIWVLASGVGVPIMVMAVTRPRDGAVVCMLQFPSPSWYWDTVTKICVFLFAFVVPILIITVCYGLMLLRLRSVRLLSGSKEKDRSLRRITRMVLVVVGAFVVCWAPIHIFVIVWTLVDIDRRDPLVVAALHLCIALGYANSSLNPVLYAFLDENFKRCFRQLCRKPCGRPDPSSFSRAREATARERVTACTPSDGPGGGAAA

[1] = biological target: Platelet Activating Factor (PAF) (Homo sapiens, UniProt P25105); assay: Lead Profiling Screen, Eurofins Panlabs; format: binding; conditions: hum, read-out: % inh at 10 μM
Platelet Activating Factor (PAF), sequence (P25105 whole entry): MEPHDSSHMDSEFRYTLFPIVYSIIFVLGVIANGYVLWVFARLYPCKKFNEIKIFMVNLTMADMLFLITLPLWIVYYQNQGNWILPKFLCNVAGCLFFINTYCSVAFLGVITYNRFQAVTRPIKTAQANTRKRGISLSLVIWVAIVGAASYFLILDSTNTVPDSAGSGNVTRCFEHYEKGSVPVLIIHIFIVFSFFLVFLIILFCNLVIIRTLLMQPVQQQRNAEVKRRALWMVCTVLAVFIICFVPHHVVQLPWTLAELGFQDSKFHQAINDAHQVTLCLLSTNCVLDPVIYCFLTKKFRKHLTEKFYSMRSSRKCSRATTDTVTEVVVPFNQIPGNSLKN

Purinergic P2X = assay: Lead Profiling Screen, Eurofins Panlabs; format: binding; conditions: rat
Thyroid Hormone = assay: Lead Profiling Screen, Eurofins Panlabs; format: binding; conditions: rat
[2] = biological target: Transporter, Dopamine (DAT) (Homo sapiens, UniProt Q01959); assay: Lead Profiling Screen, Eurofins Panlabs; format: binding; conditions: hum, read-out: % inh at 10 μM
Transporter, Dopamine (DAT), sequence (Q01959 whole entry): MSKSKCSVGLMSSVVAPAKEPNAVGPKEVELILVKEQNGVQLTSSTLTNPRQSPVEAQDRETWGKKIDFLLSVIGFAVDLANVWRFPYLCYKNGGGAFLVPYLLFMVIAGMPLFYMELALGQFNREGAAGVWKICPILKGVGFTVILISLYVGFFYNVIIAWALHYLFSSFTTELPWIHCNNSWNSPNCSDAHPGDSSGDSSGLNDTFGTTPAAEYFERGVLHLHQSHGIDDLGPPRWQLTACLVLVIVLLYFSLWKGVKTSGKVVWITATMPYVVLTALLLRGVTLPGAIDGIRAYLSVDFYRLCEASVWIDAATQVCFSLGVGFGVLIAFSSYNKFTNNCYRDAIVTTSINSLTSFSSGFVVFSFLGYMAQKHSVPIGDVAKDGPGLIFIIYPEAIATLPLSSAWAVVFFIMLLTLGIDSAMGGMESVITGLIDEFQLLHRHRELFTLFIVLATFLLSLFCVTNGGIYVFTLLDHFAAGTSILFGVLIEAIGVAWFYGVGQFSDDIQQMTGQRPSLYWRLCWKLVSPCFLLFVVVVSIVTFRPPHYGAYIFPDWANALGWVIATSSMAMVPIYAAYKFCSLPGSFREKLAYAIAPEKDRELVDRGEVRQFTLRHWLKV

T1 sequence (Q14416 19-872): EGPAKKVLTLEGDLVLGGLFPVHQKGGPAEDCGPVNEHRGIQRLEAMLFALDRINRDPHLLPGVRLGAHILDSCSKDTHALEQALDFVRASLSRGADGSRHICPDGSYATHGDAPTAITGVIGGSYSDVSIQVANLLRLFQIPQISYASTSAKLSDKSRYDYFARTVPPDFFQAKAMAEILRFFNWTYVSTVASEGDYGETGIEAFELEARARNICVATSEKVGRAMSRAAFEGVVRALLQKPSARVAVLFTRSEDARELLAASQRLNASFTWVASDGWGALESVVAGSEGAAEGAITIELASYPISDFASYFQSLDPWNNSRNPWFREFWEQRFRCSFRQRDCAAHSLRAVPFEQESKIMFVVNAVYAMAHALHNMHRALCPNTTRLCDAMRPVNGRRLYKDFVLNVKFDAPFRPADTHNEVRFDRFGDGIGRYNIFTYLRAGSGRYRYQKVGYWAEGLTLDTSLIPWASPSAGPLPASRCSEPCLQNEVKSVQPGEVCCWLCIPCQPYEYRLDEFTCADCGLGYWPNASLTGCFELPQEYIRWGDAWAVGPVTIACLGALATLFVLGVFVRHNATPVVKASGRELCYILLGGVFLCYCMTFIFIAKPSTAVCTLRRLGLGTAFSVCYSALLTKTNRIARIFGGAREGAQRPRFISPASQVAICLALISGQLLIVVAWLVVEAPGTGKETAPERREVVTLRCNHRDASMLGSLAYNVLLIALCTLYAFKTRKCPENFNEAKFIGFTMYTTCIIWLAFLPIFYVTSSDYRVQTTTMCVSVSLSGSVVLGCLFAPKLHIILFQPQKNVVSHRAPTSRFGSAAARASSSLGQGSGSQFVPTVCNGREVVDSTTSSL

Cc1cc(Oc2cnn(C)c2)cc(C(=O)Nc2ccc(F)cn2)n1 [22iA]
IC50, human mGlu2 (human mGlu2): inactive | %GluMin, human mGlu3 (human mGlu3): [58] % | IC50 (human mGlu3): > 10 µM | IC50 (CYP 1A2): ≥ 30 µM | % inh at 10 μM (Imidazoline I2, Central): -1% | inhibition at 10 µM (Interleukin IL-1 R1): -7% | inhibition at 10 µM (Opiate δ1 (OP1, DOP)): 3% | inhibition at 10 µM [1]: 3% | % inh at 10 μM (Purinergic P2X): 15% | % inh at 10 μM (Thyroid Hormone): -2% | inhibition at 10 µM [2]: 25%
